Experimental data from the Kinase Knowledgebase extract (Sharma et al. 2016).

Target: PIK3CA (human) (UniProt P42336)
Assay: Inhibition of PIK3CA Kinase Activity

Sequence of PIK3CA (human) (P42336 whole entry, looked up): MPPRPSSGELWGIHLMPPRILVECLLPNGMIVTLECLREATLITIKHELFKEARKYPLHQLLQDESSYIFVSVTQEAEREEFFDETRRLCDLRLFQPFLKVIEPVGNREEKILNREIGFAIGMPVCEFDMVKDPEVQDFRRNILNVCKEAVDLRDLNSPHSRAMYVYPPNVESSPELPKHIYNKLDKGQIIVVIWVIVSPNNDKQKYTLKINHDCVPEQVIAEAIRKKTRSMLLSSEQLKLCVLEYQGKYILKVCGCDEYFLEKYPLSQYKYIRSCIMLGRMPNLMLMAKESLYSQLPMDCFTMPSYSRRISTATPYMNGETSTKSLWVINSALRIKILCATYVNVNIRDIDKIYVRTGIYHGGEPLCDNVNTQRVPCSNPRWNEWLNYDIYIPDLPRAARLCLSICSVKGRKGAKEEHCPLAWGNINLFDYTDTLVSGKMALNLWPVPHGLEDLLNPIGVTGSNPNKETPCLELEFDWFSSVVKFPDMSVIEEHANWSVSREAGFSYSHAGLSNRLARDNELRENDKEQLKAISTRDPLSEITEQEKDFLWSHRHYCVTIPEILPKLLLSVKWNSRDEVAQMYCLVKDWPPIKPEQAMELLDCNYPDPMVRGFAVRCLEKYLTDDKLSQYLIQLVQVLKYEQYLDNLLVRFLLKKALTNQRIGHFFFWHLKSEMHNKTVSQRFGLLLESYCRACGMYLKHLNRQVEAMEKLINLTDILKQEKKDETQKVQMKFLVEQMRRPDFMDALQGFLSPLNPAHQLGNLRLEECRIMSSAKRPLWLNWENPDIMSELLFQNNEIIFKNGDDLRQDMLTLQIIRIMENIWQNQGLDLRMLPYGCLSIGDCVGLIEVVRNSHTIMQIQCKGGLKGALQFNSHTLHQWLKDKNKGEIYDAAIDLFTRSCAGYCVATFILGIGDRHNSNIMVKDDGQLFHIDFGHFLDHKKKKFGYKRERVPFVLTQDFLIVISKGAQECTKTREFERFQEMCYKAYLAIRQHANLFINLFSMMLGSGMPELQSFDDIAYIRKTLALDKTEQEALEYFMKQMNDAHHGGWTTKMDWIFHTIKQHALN

Row | IC50 [nM] | IC80 [nM] | SMILES
1 | 10000 | – | c1ccc(-n2ncc3c(N4CCOCC4)nc(-c4csc5ccccc45)nc32)cc1
2 | 9130 | – | CN(C)c1cccc(-c2nc(N3CCOCC3)c3cnn(C4CCN(Cc5ccccc5)CC4)c3n2)c1
3 | 8200 | – | c1ccc(CN2CCC(n3ncc4c(N5CCOCC5)nc(-c5ccc6ccccc6c5)nc43)CC2)cc1
4 | 10000 | – | c1ccc(CN2CCC(n3ncc4c(N5CCOCC5)nc(-c5cccc6ccccc56)nc43)CC2)cc1
5 | 1560 | – | CNC(=O)Nc1ccc(-c2nc(N3CCOCC3)c3cnn(C4CCN(COC)CC4)c3n2)cc1
6 | 10000 | – | c1ccc(CN2CCC(n3ncc4c(N5CCOCC5)nc(-c5cccc(-c6ccccc6)c5)nc43)CC2)cc1
7 | 14 | – | CNC(=O)Nc1ccc(-c2nc(N3CCOCC3)c3cn[nH]c3n2)cc1
8 | 8570 | – | c1ccc(CN2CCC(n3ncc4c(N5CCOCC5)nc(-c5ccc(-c6ccccc6)cc5)nc43)CC2)cc1
9 | 10000 | – | O=C(O)c1cccc(-c2nc(N3CCOCC3)c3cnn(C4CCN(Cc5ccccc5)CC4)c3n2)c1
10 | – | 84 | NC(=O)Nc1ccc(-c2nc(N3CCOCC3)c3cnn(C4CCN(C(=O)c5ccccc5)CC4)c3n2)cc1
11 | 10000 | – | c1cc2cc(-c3nc(N4CCOCC4)c4cnn([C@H]5CCCNC5)c4n3)ccc2[nH]1
12 | 999 | – | COC(=O)Nc1ccc(-c2nc(N3CCOCC3)c3cnn(C4CCN(C(=O)c5ccc(C#N)cc5)CC4)c3n2)cc1
13 | 80 | – | CNC(=O)Nc1ccc(-c2nc(N3CCOCC3)c3cnn(C4=CC[S+]([O-])CC4)c3n2)cc1 (centres undefined)
14 | 10000 | – | CN(C)C(=O)c1ccc(-c2nc(N3CCOCC3)c3cnn(C4CCN(Cc5ccccc5)CC4)c3n2)cc1
15 | 66 | – | CNC(=O)Nc1ccc(-c2nc(N3CCOCC3)c3cnn(C4CCN(C(N)=O)CC4)c3n2)cc1
16 | 1200 | – | COC(=O)Nc1ccc(-c2nc(N3CCOCC3)c3cnn(C4CCN(Cc5ccc(F)nc5)CC4)c3n2)cc1
17 | 1650 | – | CC(=O)Nc1ccc(-c2nc(N3CCOCC3)c3cnn(C4CCCCO4)c3n2)cc1 (centres undefined)
18 | 440 | – | c1ccc(-n2ncc3c(N4CCOCC4)nc(-c4cncnc4)nc32)cc1
19 | 1750 | – | O=C(c1ccc(F)cc1)N1CCC(n2ncc3c(N4CCOCC4)nc(-c4ccc5[nH]ccc5c4)nc32)CC1
20 | 357 | – | NC(=O)Cc1cccc(-c2nc(N3CCOCC3)c3cnn(-c4ccccc4)c3n2)c1
21 | 74 | – | CNC(=O)Nc1ccc(-c2nc(N3CCOCC3)c3cnn(C4=CCS(=O)(=O)CC4)c3n2)cc1
22 | 8770 | – | c1ccc(CN2CCC(n3ncc4c(N5CCOCC5)nc(-c5cccc6c5sc5ccccc56)nc43)CC2)cc1
23 | 480 | – | CN(C)C(=O)C=CCN1CCC(n2ncc3c(N4CCOCC4)nc(-c4ccc5[nH]ccc5c4)nc32)CC1
24 | 10000 | – | c1cc2cc(-c3nc(N4CCOCC4)c4cnn([C@@H]5CCCNC5)c4n3)ccc2[nH]1
25 | 6720 | – | CCOC(=O)Nc1ccc(-c2nc(N3CCOCC3)c3cnn(C4CCN(C(=O)OCC)CC4)c3n2)cc1
26 | 1430 | – | O=C(c1cccc(C(F)(F)F)c1)N1CCC(n2ncc3c(N4CCOCC4)nc(-c4ccc5[nH]ccc5c4)nc32)CC1
27 | 1700 | – | Clc1ccccc1CN1CCC(n2ncc3c(N4CCOCC4)nc(-c4ccc5[nH]ccc5c4)nc32)CC1
28 | 32 | – | CC(C)(C)OC(=O)N1CCC(n2ncc3c(N4CCOCC4)nc(-c4ccc(NC(=O)Nc5cccnc5)cc4)nc32)CC1

Row | SMILES | IC50 [nM] | IC80 [nM]
29 | Nc1ccc(-c2nc(N3CCOCC3)c3cn[nH]c3n2)cc1 | 1610 | –
